Experimental data as given in article PMC12226733, “Evolution of iGluR ligand specificity, polyamine regulation, and ion selectivity inferred from a placozoan epsilon receptor” (Communications Biology, 2025).
Several values for one entry are separate records, joined by “and”; a condition that tells them apart may be missing. Equal entries are not always repeated. Where two headings read alike, the source gives them in different places.

Experiments:
GluE1αA wildtype = format: cell-based, Trichoplax adhaerens; conditions: […]; for normalized conductance (G-V, Figure 5g), Avg: Na vs Na; for I-V current, Na vs Na, Avg of recordings: Figure 5b
GluA2 Q607S = biological target: T1, GluA2 Q607S (Homo sapiens, UniProt P42262, Q607S); format: cell-based; conditions: GluA2 Q-S; for normalized conductance (G-V, Figure 5g), Avg: Na vs Na; for I-V current, Na vs Na, Avg of recordings: Figure 5b
T1 construct: host or cells: HEK-293T/17
T1 sequence (P42262 25-883 Q607S): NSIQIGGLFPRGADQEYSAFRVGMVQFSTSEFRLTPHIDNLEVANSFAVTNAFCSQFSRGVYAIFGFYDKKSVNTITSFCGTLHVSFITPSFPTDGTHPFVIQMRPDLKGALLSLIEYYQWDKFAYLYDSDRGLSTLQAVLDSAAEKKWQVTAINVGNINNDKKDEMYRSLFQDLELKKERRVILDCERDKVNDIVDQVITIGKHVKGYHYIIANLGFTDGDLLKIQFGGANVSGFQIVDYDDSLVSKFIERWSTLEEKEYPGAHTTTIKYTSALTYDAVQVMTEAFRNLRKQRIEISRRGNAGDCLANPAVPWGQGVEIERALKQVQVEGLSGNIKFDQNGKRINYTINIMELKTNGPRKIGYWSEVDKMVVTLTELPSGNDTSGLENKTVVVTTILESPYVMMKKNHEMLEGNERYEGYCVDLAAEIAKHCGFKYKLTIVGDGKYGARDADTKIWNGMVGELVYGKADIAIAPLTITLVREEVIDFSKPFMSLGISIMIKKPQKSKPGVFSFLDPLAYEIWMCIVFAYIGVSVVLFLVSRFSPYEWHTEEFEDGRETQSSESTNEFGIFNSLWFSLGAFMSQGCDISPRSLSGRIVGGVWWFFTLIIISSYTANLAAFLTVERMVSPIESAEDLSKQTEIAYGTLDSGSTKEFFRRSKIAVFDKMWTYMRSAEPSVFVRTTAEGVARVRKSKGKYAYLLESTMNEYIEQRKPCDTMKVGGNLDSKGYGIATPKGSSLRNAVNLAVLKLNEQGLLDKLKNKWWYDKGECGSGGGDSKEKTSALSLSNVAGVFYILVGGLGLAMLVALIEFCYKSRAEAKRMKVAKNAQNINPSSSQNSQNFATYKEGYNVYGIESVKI

GluE1αA S642Q plus D646A = format: cell-based, Trichoplax adhaerens; conditions: […]; for normalized conductance (G-V, Figure 5g), Avg: Na vs Na; for I-V current, Na vs Na, Avg of recordings: Figure 5b
GluE1αA S642N = biological target: T2, GluE1αA S642N (Trichoplax adhaerens, UniProt B3SAW0, S167N); format: cell-based; conditions: for normalized conductance (G-V, Figure 5g), Avg: Na vs Na; for I-V current, Na vs Na, Avg of recordings: Figure 5b
T2 sequence (B3SAW0 1-341 S167N): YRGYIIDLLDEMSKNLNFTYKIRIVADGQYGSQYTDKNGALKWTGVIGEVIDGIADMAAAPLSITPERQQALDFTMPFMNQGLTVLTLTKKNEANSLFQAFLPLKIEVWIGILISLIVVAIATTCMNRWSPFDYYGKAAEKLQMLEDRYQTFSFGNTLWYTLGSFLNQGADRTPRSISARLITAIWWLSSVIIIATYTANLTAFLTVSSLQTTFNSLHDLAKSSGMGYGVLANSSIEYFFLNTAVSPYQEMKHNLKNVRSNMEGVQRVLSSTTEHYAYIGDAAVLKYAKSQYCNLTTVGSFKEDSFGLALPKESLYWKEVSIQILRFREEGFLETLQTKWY

GluE1αA D646A = conditions: single recordings c1-c7, AVG c8
From the text: To further elucidate the nature of internal polyamine block in GluE1αA, we performed outside-out membrane patch clamp experiments in wildtype and mutant channels. […] Current-voltage (I-V) relationships were converted to conductance-voltage (G-V) plots and fit with a single permeant blocker model to estimate both the dissociation constant for Spm at 0 mV (Kd(0mV)) and the voltage dependency of block, as previously described[46],[47].
HEK-293T/17 cells (ATCC) were maintained in MEM supplemented with GlutaMAX and 10% fetal bovine serum (FBS) at 37 °C and 5% CO2. […] Transient transfections were carried out 48 h post-plating using the calcium phosphate precipitation method. After 6–8 hours, cells were washed twice with PBS and maintained in fresh medium. Cells transfected with mammalian GluA2 cDNA (plasmid vector described above) were returned to an incubator at 37 °C for 24–48 hours and cells transfected with Epsilon GluE1αA were incubated at 28 °C for 48–72 hours. In cells co-transfected with TARP-γ2, 30 μM NBQX was included in the medium to minimize AMPAR/auxiliary-induced cytotoxicity. All constructs were co-transfected with a plasmid encoding enhanced green fluorescent protein (eGFP) to identify transfected cells. Electrophysiology responses were recorded from outside-out patches excised from transfected cells. Recording pipettes were composed of borosilicate glass (3 to 6 megaohm, King Precision Glass) coated with dental wax to reduce electrical noise. All recordings were performed using Axopatch 200B amplifier (Molecular Devices, LLC). Current records were filtered at 5 or 10 kHz and sampled at 25–50 kHz. Series resistance (3 to 12 megaohms) was compensated by 95%. Recordings were performed at a range of holding potentials from −100 mV to 100 mV to study polyamine block. Data was acquired using pClamp9 software (Molecular Devices, LLC). All experiments were performed at room temperature. All chemicals were purchased from Sigma-Aldrich, unless otherwise indicated. External solution contained (in mM): 150 NaCl, 5 HEPES, 0.1 CaCl2, 0.1 MgCl, and […], pH 7.3–7.4. […] The osmotic pressure of all solutions was adjusted to 295 to 300 mOsm with sucrose. […] Stocks were thawed on the day of the experiment and used to prepared agonist-containing external solutions. Raw data for all electrophysiology experiments are provided in Supplementary Data 3. Current-voltage (I-V) relationships were fit using Origin 7 (OriginLab) using a ninth order polynomial function to estimate the reversal potential (Vrev).
Agonist-evoked membrane conductance (G) was calculated using the following equation: G=I/(V−Vrev) […]

[Na+] [Na]
normalized conductance (G-V, Figure 5g), Avg (GluE1αA wildtype; Vm 0.00): 0.54
normalized conductance (G-V, Figure 5g), Avg (GluE1αA wildtype; Vm 20.00): 0.50
normalized conductance (G-V, Figure 5g), Avg (GluE1αA wildtype; Vm 40.00): 0.58
normalized conductance (G-V, Figure 5g), Avg (GluE1αA wildtype; Vm 60.00): 0.65
normalized conductance (G-V, Figure 5g), Avg (GluE1αA wildtype; Vm 80.00): 0.67
normalized conductance (G-V, Figure 5g), Avg (GluE1αA wildtype; Vm -20.00): 0.70
normalized conductance (G-V, Figure 5g), Avg (GluE1αA wildtype; Vm -40.00): 0.83
normalized conductance (G-V, Figure 5g), Avg (GluE1αA wildtype; Vm -60.00): 0.93
normalized conductance (G-V, Figure 5g), Avg (GluE1αA wildtype; Vm -80.00): 1.00
I-V current, Na vs Na, Avg of recordings (GluE1αA wildtype; Vm 0.00): -0.0053
I-V current, Na vs Na, Avg of recordings (GluE1αA wildtype; Vm 20.00): 0.11
I-V current, Na vs Na, Avg of recordings (GluE1αA wildtype; Vm 40.00): 0.23
I-V current, Na vs Na, Avg of recordings (GluE1αA wildtype; Vm 60.00): 0.38
I-V current, Na vs Na, Avg of recordings (GluE1αA wildtype; Vm 80.00): 0.54
I-V current, Na vs Na, Avg of recordings (GluE1αA wildtype; Vm -20.00): -0.15
I-V current, Na vs Na, Avg of recordings (GluE1αA wildtype; Vm -40.00): -0.34
I-V current, Na vs Na, Avg of recordings (GluE1αA wildtype; Vm -60.00): -0.54
I-V current, Na vs Na, Avg of recordings (GluE1αA wildtype; Vm -80.00): -0.77
normalized conductance (G-V, Figure 5g), Avg (GluA2 Q607S; Vm 0.00): 0.29
normalized conductance (G-V, Figure 5g), Avg (GluA2 Q607S; Vm 20.00): 0.39
normalized conductance (G-V, Figure 5g), Avg (GluA2 Q607S; Vm 40.00): 0.47
normalized conductance (G-V, Figure 5g), Avg (GluA2 Q607S; Vm 60.00): 0.53
normalized conductance (G-V, Figure 5g), Avg (GluA2 Q607S; Vm 80.00): 0.52
normalized conductance (G-V, Figure 5g), Avg (GluA2 Q607S; Vm -20.00): 0.28
normalized conductance (G-V, Figure 5g), Avg (GluA2 Q607S; Vm -40.00): 0.39
normalized conductance (G-V, Figure 5g), Avg (GluA2 Q607S; Vm -60.00): 0.63
normalized conductance (G-V, Figure 5g), Avg (GluA2 Q607S; Vm -80.00): 1.00
I-V current, Na vs Na, Avg of recordings (GluA2 Q607S; Vm 0.00): -0.0234
I-V current, Na vs Na, Avg of recordings (GluA2 Q607S; Vm 20.00): 0.09
I-V current, Na vs Na, Avg of recordings (GluA2 Q607S; Vm 40.00): 0.23
I-V current, Na vs Na, Avg of recordings (GluA2 Q607S; Vm 60.00): 0.41
I-V current, Na vs Na, Avg of recordings (GluA2 Q607S; Vm 80.00): 0.57
I-V current, Na vs Na, Avg of recordings (GluA2 Q607S; Vm -20.00): -0.10
I-V current, Na vs Na, Avg of recordings (GluA2 Q607S; Vm -40.00): -0.20
I-V current, Na vs Na, Avg of recordings (GluA2 Q607S; Vm -60.00): -0.35
I-V current, Na vs Na, Avg of recordings (GluA2 Q607S; Vm -80.00): -0.61
normalized conductance (G-V, Figure 5g), Avg (GluE1αA S642Q plus D646A; Vm 0.00): 0.77
normalized conductance (G-V, Figure 5g), Avg (GluE1αA S642Q plus D646A; Vm 20.00): 0.75
normalized conductance (G-V, Figure 5g), Avg (GluE1αA S642Q plus D646A; Vm 40.00): 0.71
normalized conductance (G-V, Figure 5g), Avg (GluE1αA S642Q plus D646A; Vm 60.00): 0.70
normalized conductance (G-V, Figure 5g), Avg (GluE1αA S642Q plus D646A; Vm 80.00): 0.74
normalized conductance (G-V, Figure 5g), Avg (GluE1αA S642Q plus D646A; Vm -20.00): 0.79
normalized conductance (G-V, Figure 5g), Avg (GluE1αA S642Q plus D646A; Vm -40.00): 0.87
normalized conductance (G-V, Figure 5g), Avg (GluE1αA S642Q plus D646A; Vm -60.00): 0.95
normalized conductance (G-V, Figure 5g), Avg (GluE1αA S642Q plus D646A; Vm -80.00): 1.00
I-V current, Na vs Na, Avg of recordings (GluE1αA S642Q plus D646A; Vm 0.00): -0.02
I-V current, Na vs Na, Avg of recordings (GluE1αA S642Q plus D646A; Vm 20.00): 0.15
I-V current, Na vs Na, Avg of recordings (GluE1αA S642Q plus D646A; Vm 40.00): 0.31
I-V current, Na vs Na, Avg of recordings (GluE1αA S642Q plus D646A; Vm 60.00): 0.47
I-V current, Na vs Na, Avg of recordings (GluE1αA S642Q plus D646A; Vm 80.00): 0.63
I-V current, Na vs Na, Avg of recordings (GluE1αA S642Q plus D646A; Vm -20.00): -0.18
I-V current, Na vs Na, Avg of recordings (GluE1αA S642Q plus D646A; Vm -40.00): -0.37
I-V current, Na vs Na, Avg of recordings (GluE1αA S642Q plus D646A; Vm -60.00): -0.57
I-V current, Na vs Na, Avg of recordings (GluE1αA S642Q plus D646A; Vm -80.00): -0.76
pNa/pNa (GluE1αA S642N): 1.08
normalized conductance (G-V, Figure 5g), Avg (GluE1αA S642N; Vm 0.00): 0.09
normalized conductance (G-V, Figure 5g), Avg (GluE1αA S642N; Vm 20.00): 0.06
normalized conductance (G-V, Figure 5g), Avg (GluE1αA S642N; Vm 40.00): 0.14
normalized conductance (G-V, Figure 5g), Avg (GluE1αA S642N; Vm 60.00): 0.27
normalized conductance (G-V, Figure 5g), Avg (GluE1αA S642N; Vm 80.00): 0.34
normalized conductance (G-V, Figure 5g), Avg (GluE1αA S642N; Vm -20.00): 0.24
normalized conductance (G-V, Figure 5g), Avg (GluE1αA S642N; Vm -40.00): 0.49
normalized conductance (G-V, Figure 5g), Avg (GluE1αA S642N; Vm -60.00): 0.76
normalized conductance (G-V, Figure 5g), Avg (GluE1αA S642N; Vm -80.00): 1.00
I-V current, Na vs Na, Avg of recordings (GluE1αA S642N; Vm 0.00): -0.00109
I-V current, Na vs Na, Avg of recordings (GluE1αA S642N; Vm 20.00): 0.0153
I-V current, Na vs Na, Avg of recordings (GluE1αA S642N; Vm 40.00): 0.04
I-V current, Na vs Na, Avg of recordings (GluE1αA S642N; Vm 60.00): 0.11
I-V current, Na vs Na, Avg of recordings (GluE1αA S642N; Vm 80.00): 0.22
I-V current, Na vs Na, Avg of recordings (GluE1αA S642N; Vm -20.00): -0.0458
I-V current, Na vs Na, Avg of recordings (GluE1αA S642N; Vm -40.00): -0.16
I-V current, Na vs Na, Avg of recordings (GluE1αA S642N; Vm -60.00): -0.37
I-V current, Na vs Na, Avg of recordings (GluE1αA S642N; Vm -80.00): -0.64

NCCCNCCCCNCCCN [spermine]
Normalized current (Inorm) (GluE1αA D646A; 20 mV): 0.12 and 0.10 and 0.11
Normalized current (Inorm) (GluE1αA D646A; 30 mV): 0.18 and 0.16 and 0.19
Normalized conductance (Gnorm) (GluE1αA D646A; -100 mV): 1.00
Normalized current (Inorm) (GluE1αA D646A; -100 mV): -1.00
